The assay deals with normal human bronchial epithelial cells (NHBE). The assay is described as follows: Cumulative dose kinetic responses of intracellular Ca++, Cl- and cell membrane potential (simultaneous three-fluorophore photon counting: Fluo-3, di-MEQ, RH421). Format: cell-based. The settings on record: for intracellular Ca++ response / intracellular Cl- response / membrane potential response: cumulative dosing. The procedure: Normal human bronchial/tracheal epithelial cells (NHBE, Clonetics) were cultured in T-25 cm^2 flasks at 37° C., 5% CO2 using Bronchial/Tracheal Epithelial Cell Growth Medium containing Retinoic Acid (BEGM, w/RA, Clonetics). When the NHBE cells in the T-25 flasks reached 60%-80% confluency, the cells were passaged using a seeding density of 3500 cells/cm^2. A portion of the cells was passaged in T-25 flasks again while the remaining cells were seeded on UV-exposed Vitrogen (pH balanced 1:1 BEGM to Vitrogen) coated 4-well cover glass chambers (LabTek II). NHBE cells normally attached to the collagen-coated cover glass chamber within 24 hrs. Prior to these cells reaching 60% confluency, they were used for all the experiments described below. Cells used in all the experiments were either 2nd or 3rd passage cells maintained in Bronchial/Tracheal Epithelial Cell Growth Medium with Retinoic Acid (BEGM, w/RA, Clonetics).
The following procedures for loading the cells with fluorophore were employed. Balanced Hank's (BH) solution without phenol red was used as the medium for all the fluorophore preparations and cell washings unless stated otherwise. Fluo-3 (a Ca^++ indicator), di-MEQ (a Cl^− indicator) and RH421 (a cell membrane potential indicator) were loaded into cells sequentially at room temperature. Cells were first incubated with 8 μM Fluo-3 solution for 60 minutes, followed by incubating with 50 μM di-MEQ for 5 minutes and then finally with 10 μM RH421 for 5 minutes. Extraneous dyes were washed with BH solution between each fluorophore loading procedure. The cells were allowed to stabilize in BEGM for a minimum of 15 minutes at room temperature prior to the beginning of each experiment.
Experiments were performed at room temperature. All tested agents were prepared in Balanced Hank's Solution. One of the wells of the cover glass chamber was placed on the stage of the inverted microscope and the cells loaded with the fluorophores were visually focused with the violet, green and orange emitted light from the cells approximately in the same focal plane. At a sampling frequency of 100 Hz, cells with the following photon counts were chosen for the study: 20 to 50 counts per channel (cpc) for Ca^++ fluorescence, 70 to 200 cpc for Cl^− fluorescence, and 20 to 50 cpc for cell membrane potential fluorescence. After establishing a 2 minute baseline, increasing doses of the agent of interest were added topically to the wells 2 minutes apart. At the end of each experiment, a toxic dose of the agent of interest was added to the sample to either shrink or swell the cells beyond their normal cell volume regulatory range. This caused the fluorescence signals of each of these fluorophores to reach either maximum or minimum values. […] Background fluorescence was recorded using a cell free area of the same well. If the signal to background ratio was not higher than a factor of 10, the experiments were also discarded.

The mark [1] stands for this setting: 25 μM to 500 μM cumulative dosing, general statement.
[2] abbreviates: Glibenclamide concentrations below 500 μM.

This is an account of results in patent US20030228566A1, “Method of and apparatus for screening for drug candidates” (BioTechPlex Corporation, priority 2002, published 2003).

SMILES strings stand for the structures.

For the compound `COc1ccc(Cl)cc1C(=O)NCCc1ccc(S(=O)(=O)NC(=O)NC2CCCCC2)cc1` [Glibenclamide], under setting [1], the “[Cl-]i (MEQ fluorescence inversely proportional to [Cl-]i), overall effect” value is given as “increased” and the “cell membrane polarization, overall effect” value is reported as “hyperpolarized”. For the same compound, under setting [2], the “intracellular Ca++ response” value was “little affected”, the “intracellular Cl- response” value is “declines as Glibenclamide concentration increases” and the membrane potential response entry is on record as “little affected”. Under “concentration 500 μM”, the “intracellular Ca++ response” value is “rapid increase”, the “intracellular Cl- response” value is given as “simultaneous drop” and the membrane potential response entry is “simultaneous increase”.
Regarding `O=c1ccn([C@@H]2O[C@H](COP(=O)(O)OP(=O)(O)OP(=O)(O)O)[C@@H](O)[C@H]2O)c(=O)[nH]1` [UTP, uridine triphosphate], under “concentration 0.1 mM”, the “intracellular Ca++ response” value is listed as “rapid increase”, the “intracellular Cl- response” value is recorded as “essentially no changes” and the membrane potential response result was “essentially no changes”. Further, under “concentration 1 mM”, the “intracellular Ca++ response” value is on record as “rapid increase”, the “intracellular Cl- response” value is “essentially no changes” and the membrane potential response entry is “essentially no changes”.
